Results reported in patent US20240261365A1, “POLYPEPTIDE ALBUMIN NANOPARTICLE, PREPARATION METHOD THEREFOR, AND APPLICATION THEREOF” (SUZHOU INSTITUTE OF NANO-TECH AND NANO-BIONICS (SINANO) , …, priority 2020, published 2024).
Where two headings read alike, the source gives them in different places. Where a SMILES comes first, the peptide text is derived from it.

Assays:
[1] = concentration in blood after tail vein injection, ICP-MASS of iridium; settings: mouse, in vivo, BALB/c mice, 100 μL of 500 μM, read-out: elimination half-life in the blood
Protocol: 36 BALB/c mice were equally divided into two groups and injected with 100 μL of Ir-cR8 and Ir-cR8-HSA nanoparticles (500 μM) through tail veins, separately. After 0.5 h, 2 h, 4 h, 8 h, 24 h and 48 h, eyes were removed for blood sampling and centrifuged at 10000 rpm for 10 min. […] of centrifuged serum was added with 1 mL of high chlorine acid and 3 mL of aqua regia, digested at 260° C. for 2 h, and added with water to 10 mL. The content of metal iridium in the blood at each time point was detected by ICP-MASS.

[2] = tested on: Human cervical cancer cells, Hela cells; assay type: cell-based
Protocol: Human cervical cancer cells, Hela cells, were dispersed with a DMEM medium containing 10% fetal bovine serum and spread to a 96-well plate, 8000 cells per well. After the cells were attached to the walls, Ir-cR5, Ir-cR8 and Ir-aR8 of 2, 4, 8, 16, 32, 64 and 128 μM and the corresponding oligoarginine polypeptides cR5, cR8 and aR8 were added and incubated for 24 h. The cell activity was detected by a thiazole blue method and the half-maximal inhibitory concentration (IC50) was calculated.

[3] = target: T1, human serum albumin (HSA) (human, UniProt P02768 25-609); assay: dynamic light scattering of peptide-albumin assembly
T1 construct: Dissolved in water and used in solution
Protocol: The detection was performed at 25° C. using the dynamic light scattering apparatus, and only the peaks of the formed polypeptide albumin nanoparticles were calculated.

T1 sequence (P02768 25-609 limits assumed): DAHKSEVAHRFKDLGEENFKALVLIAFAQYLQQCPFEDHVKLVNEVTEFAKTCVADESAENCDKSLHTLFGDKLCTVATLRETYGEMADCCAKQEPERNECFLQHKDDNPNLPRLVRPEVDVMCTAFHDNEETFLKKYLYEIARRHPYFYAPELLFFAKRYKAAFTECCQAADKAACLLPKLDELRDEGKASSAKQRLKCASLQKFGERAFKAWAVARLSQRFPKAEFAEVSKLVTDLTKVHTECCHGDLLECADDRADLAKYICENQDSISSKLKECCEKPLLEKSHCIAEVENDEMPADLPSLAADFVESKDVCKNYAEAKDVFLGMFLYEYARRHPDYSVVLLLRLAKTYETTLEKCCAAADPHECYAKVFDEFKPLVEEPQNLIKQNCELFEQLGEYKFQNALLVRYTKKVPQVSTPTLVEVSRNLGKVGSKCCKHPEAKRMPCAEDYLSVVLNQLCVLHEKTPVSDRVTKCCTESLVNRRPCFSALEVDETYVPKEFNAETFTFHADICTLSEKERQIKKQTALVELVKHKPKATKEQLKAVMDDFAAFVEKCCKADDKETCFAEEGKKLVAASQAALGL

binding result [3] | Molecule | also measured
binds | Ac-HKKKKKKKKH-NH2 (also: coordinated with iridium complex from [Ir(ppy)2(H2O)2]OTf (1:1), also called Formula VIII) [iridium-coordinated oligopolypeptide (Ir-cK8)] | –
binds | cholesterol-RRRRRRRR-NH2 [chol-RRRRRRRR (SEQ ID NO: 2)-CONH2 (CR)] | –
binds | Ac-KKKKHHKKKK-NH2 (also: coordinated with iridium complex from [Ir(ppy)2(H2O)2]OTf (1:1), also called Formula VII) [iridium-coordinated oligopolypeptide (Ir-mK8)] | –

Further lines, the molecule ahead of its results:

Molecule | binding result [3] | also measured
CC(=O)N[C@@H](Cc1c[nH]cn1)C(=O)N[C@@H](CCCNC(=N)N)C(=O)N[C@@H](CCCNC(=N)N)C(=O)N[C@@H](CCCNC(=N)N)C(=O)N[C@@H](CCCNC(=N)N)C(=O)N[C@@H](CCCNC(=N)N)C(=O)N[C@@H](CCCNC(=N)N)C(=O)N[C@@H](CCCNC(=N)N)C(=O)N[C@@H](CCCNC(=N)N)C(=O)N[C@@H](Cc1c[nH]cn1)C(N)=O [Ir-cR8] (Ac-HRRRRRRRRH-NH2) | – | half-life [1]: < 30 min
CC(=O)N[C@@H](Cc1c[nH]cn1)C(=O)N[C@@H](Cc1c[nH]cn1)C(=O)N[C@@H](CCCNC(=N)N)C(=O)N[C@@H](CCCNC(=N)N)C(=O)N[C@@H](CCCNC(=N)N)C(=O)N[C@@H](CCCNC(=N)N)C(=O)N[C@@H](CCCNC(=N)N)C(=O)N[C@@H](CCCNC(=N)N)C(=O)N[C@@H](CCCNC(=N)N)C(=O)N[C@@H](CCCNC(=N)N)C(N)=O [aR8] (Ac-HHRRRRRRRR-NH2; N-terminus and C-terminus assumed) | – | IC50 ([2]; 24 h): > 100 µM
CC(=O)NC(Cc1c[nH]cn1)C(=O)NC(CCCNC(=N)N)C(=O)NC(CCCNC(=N)N)C(=O)NC(CCCNC(=N)N)C(=O)NC(CCCNC(=N)N)C(=O)NC(CCCNC(=N)N)C(=O)NC(Cc1c[nH]cn1)C(N)=O (centres unmarked) [cR5] (Ac-HRRRRRH-NH2; configuration not given here) | – | IC50 ([2]; 24 h): > 100 µM
CC(=O)NC(Cc1c[nH]cn1)C(=O)NC(CCCNC(=N)N)C(=O)NC(CCCNC(=N)N)C(=O)NC(CCCNC(=N)N)C(=O)NC(CCCNC(=N)N)C(=O)NC(CCCNC(=N)N)C(=O)NC(CCCNC(=N)N)C(=O)NC(CCCNC(=N)N)C(=O)NC(CCCNC(=N)N)C(=O)NC(Cc1c[nH]cn1)C(N)=O (centres unmarked) [cR8] (Ac-HRRRRRRRRH-NH2; configuration not given here) | – | IC50 ([2]; Hela cells, incubated for 24 h, read-out: IC50): > 100 µM
Ac-FWLFLRRRRRRRR-NH2 [CH3CO-FWLFLRRRRRRRR (SEQ ID NO: 1)-CONH2 (FR)] | binds | –
